# Reference: ChEMBL document CHEMBL1123271, “Selective monoamine oxidase inhibitors. 4. 4-Aminophenethylamine derivatives with neuron-selective action” (J Med Chem, 1986)
# Tests used:
# [1] = tested on: Rattus norvegicus; test: Compound was tested for the behavioral changes in reserpinized rats that indicates the release of dopamine by subcuteneous administration; format: functional
# [2] = tested on: Rattus norvegicus; test: Compound was tested for the behavioral changes in reserpinized rats that indicates the release of serotonin (5-HT syndrome) by subcuteneous administration; format: functional
# [3] = organism: Rattus norvegicus; test: Determined from log concentration-inhibition curves using rat brain mitochondrial preparation as enzyme and [14C]5-HT (5-HT) as a substrate; format: functional
# [4] = Ratio (PEA/5-HT) of the compound; format: functional
# [5] = tested on: Rattus norvegicus; test: Compound was tested for the behavioral changes in reserpinized rats that indicates the release of norepinephrine (reversal of ptosis) by subcuteneous administration; format: functional
# [6] = Ratio between inhibition of outside NE neurons to that of inside NE neurons; format: functional
# [7] = Ratio between inhibition of outside 5-HT neurons to that of inside 5-HT neurons; format: functional
# [8] = organism: Rattus norvegicus; test: Determined from log concentration-inhibition curves using rat brain mitochondrial preparation as enzyme and phenethylamine (PEA) as a substrate; format: functional
# [9] = Ratio between inhibition of outside DA neurons to that of inside DA neurons; format: functional
# [10] = organism: Rattus norvegicus; test: Compound was tested for its ability to inhibit norepinephrine uptake; format: functional, organism-based
# [11] = organism: Rattus norvegicus; test: Compound was tested for its ability to inhibit serotonin uptake; format: functional, organism-based
# [12] = organism: Rattus norvegicus; test: Compound was tested for its ability to inhibit dopamine uptake; format: functional, organism-based
# [13] = organism: Rattus norvegicus; test: Compound was tested for its ability to inhibit norepinephrine uptake.; format: functional, organism-based
Structure (SMILES),Least dose [1] [mg/kg],Least dose [2] [mg/kg],IC50 [3] [µM],Ratio [4],Least dose [5] [mg/kg],Ratio [6],Ratio [7],IC50 [8] [µM],Ratio [9],IC50 [10] [µM],IC50 [11] [µM],IC50 [12] [µM],IC50 [13] [µM]
CC(N)Cc1c(Cl)cc(N)cc1Cl (centres undefined),229,>229,0.012,28300,115,2.2,1,340,1.5,2.2,30,30,–
CC(C)(N)Cc1ccc(N)cc1F,264,>264,6,467,264,>2,1.6,2800,4.1,0.32,27,1.6,–
CC(N)Cc1ccc(N)cc1F (centres undefined),35,140,0.75,1070,17,71,9,800,23,0.05,1.3,0.42,–
CC(N)Cc1ccc(N)cc1 (centres undefined),72,276,6.8,1030,72,>10,>>5,7000,19,0.07,20,0.16,–
CCc1cc(N)ccc1CC(C)N (centres undefined),>269,>269,60,–,>269,–,–,1200,–,2,10,20,–
Cc1cc(N)ccc1CC(C)N (centres undefined),>270,270,1.6,1560,270,>12,>>5,2500,9.7,0.32,9,11,–
Cc1cc(N)ccc1CC(C)(C)N,>269,>269,20,75,>269,–,>1,1500,–,0.36,2.6,40,–
CC(C)(N)Cc1ccc(N)cc1Cl,>247,>247,1.3,1310,247,4.5,6,1700,2.5,–,5.5,15,0.6
CC(N)Cc1ccc(N)cc1Cl (centres undefined),>131,33,0.27,2780,16,>70,20,750,3.3,0.19,3,0.07,–
Cc1cc(N)c(Br)cc1CC(C)N (centres undefined),>211,211,1.5,193,211,>4,>2,290,2.1,0.55,6.5,2,–
